Test results from patent publication US20230181746A1, “BENZOYLHYDRAZIDE-DERIVED HDAC DEGRADERS AS THERAPEUTICS FOR TREATING CANCER AND OTHER HUMAN DISEASES” (University of Florida Research Foundation, Inc., priority 2020, published 2023).

Columns and labels:
HDAC6 = target: T1, HDAC6 (Homo sapiens, UniProt Q9UBN7); experiment: HDAC6 protein level in MDA-MB-468 cells, Western blot; format: cell-based; conditions: 14 h
T1 construct: endogenous in cells; host or cells: MDA-MB-468
T1 sequence (Q9UBN7 1-1215): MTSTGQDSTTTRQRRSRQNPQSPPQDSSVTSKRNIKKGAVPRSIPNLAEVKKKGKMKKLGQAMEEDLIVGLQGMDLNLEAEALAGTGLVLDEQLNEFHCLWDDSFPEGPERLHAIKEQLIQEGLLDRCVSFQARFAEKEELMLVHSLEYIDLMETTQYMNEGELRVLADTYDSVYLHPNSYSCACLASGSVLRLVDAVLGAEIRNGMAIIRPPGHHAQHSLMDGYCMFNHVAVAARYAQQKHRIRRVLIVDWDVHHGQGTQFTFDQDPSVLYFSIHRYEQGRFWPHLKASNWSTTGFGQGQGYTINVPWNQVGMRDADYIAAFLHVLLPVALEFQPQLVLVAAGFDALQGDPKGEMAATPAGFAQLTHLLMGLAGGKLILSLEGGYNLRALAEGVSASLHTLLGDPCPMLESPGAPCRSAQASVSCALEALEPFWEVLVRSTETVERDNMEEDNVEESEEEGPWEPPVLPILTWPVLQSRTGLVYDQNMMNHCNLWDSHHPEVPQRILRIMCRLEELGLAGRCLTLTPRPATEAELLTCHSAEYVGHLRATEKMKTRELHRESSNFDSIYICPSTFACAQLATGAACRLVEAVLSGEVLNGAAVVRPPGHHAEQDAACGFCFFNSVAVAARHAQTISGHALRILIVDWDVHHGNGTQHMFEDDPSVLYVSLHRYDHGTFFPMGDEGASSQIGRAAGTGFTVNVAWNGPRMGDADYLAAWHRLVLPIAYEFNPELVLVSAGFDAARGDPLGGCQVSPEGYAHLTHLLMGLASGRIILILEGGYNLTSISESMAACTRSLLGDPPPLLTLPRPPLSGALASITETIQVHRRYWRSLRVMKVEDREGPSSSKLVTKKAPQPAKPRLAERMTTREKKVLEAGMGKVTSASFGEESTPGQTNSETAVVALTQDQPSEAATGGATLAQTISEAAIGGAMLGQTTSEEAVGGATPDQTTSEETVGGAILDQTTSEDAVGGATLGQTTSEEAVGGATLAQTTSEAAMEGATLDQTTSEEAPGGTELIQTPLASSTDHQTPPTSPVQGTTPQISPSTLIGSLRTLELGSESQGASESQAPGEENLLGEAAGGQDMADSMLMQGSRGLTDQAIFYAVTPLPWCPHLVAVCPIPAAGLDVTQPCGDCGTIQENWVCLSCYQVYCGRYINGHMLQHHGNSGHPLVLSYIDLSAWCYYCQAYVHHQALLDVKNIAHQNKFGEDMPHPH
Procedure: FIG. 3A: Western blot showing HDAC protein levels in MDA-MB-468 cells treated with the indicated concentration of XZ9002 for 14 h. FIG. 3B: pretreatment with 1 μM MG132, or 10 μM VHL032 for 1 h blocked the degradation of HDAC3 by XZ9002 {125 nM}. […] NC: XZ9002-NC. FIG. 3C: time-dependent experiment in MDA-MB-468 cells after treatment with 125 nM XZ9002 at the indicated time points. FIG. 3D: MDA-MB-468 cells were incubated with 125 nM of XZ9002 for 14 h followed by drug washout, and incubation of the cells in drug-free medium for an additional time. Data are presented as representative figures of two independent experiments.
Cell lines were obtained from ATCC and subsequently authenticated. Cells were cultured with DMEM supplemented with 10% bovine calf serum, penicillin to 10 units/mL, and streptomycin to 10 μg/mL. For viability assays, 5,000 cells/well were seeded in 96-well plates. Compounds at a specified concentration or DMSO were added 24 h later. Viability assays were performed 72 h after compound addition using the CellTiter-Glo reagents (Promega). For colony formation assay, cells (˜1,000 cells/well) were seeded in a 24-well plate in quadruplicates. At 24 h after seeding, DMSO, XZ9002, or XZ9002-NC were added at a specified concentration. […]

[1] = system: breast cancer cell lines MCF7, T47D, MDA-MB-468, HCC-1143 and BT479; experiment: Clonogenic growth assay, breast cancer cell lines; format: cell-based; conditions: compared with XZ9002-NC
Procedure: FIGS. 8A-8B show the cellular activity of XZ9002. […] Cells were lysed for WB. The relative HDAC3 protein level in each sample is shown. […] The indicated BC cell lines were exposed to DMSO, XZ9002, or XZ9002-NC at the indicated concentrations. Colonies were fixed and stained.
Cell lines were obtained from ATCC and subsequently authenticated. Cells were cultured with DMEM supplemented with 10% bovine calf serum, penicillin to 10 units/mL, and streptomycin to 10 μg/mL. For viability assays, 5,000 cells/well were seeded in 96-well plates. Compounds at a specified concentration or DMSO were added 24 h later. Viability assays were performed 72 h after compound addition using the CellTiter-Glo reagents (Promega). For colony formation assay, cells (˜1,000 cells/well) were seeded in a 24-well plate in quadruplicates. At 24 h after seeding, DMSO, XZ9002, or XZ9002-NC were added at a specified concentration. Medium was replaced with freshly prepared medium containing DMSO, XZ9002 or XZ9002-NC every five days until visible colonies appeared, typically in 15 to 20 days after initial cell seeding. Cells were fixed with 4% paraformaldehyde for 15 min and stained with 2% methylene blue in 20% ethanol for 30 min to 1 h. The cells were washed twice with distilled water and dried in air. For western blotting, cell cultures were exposed to compounds as indicated in relevant figures. […]

- change in HDAC6 protein level (HDAC6): no significant changes
Structure (SMILES): CCCNNC(=O)c1ccc(-c2ccc(NC(=O)CCCCCCC(=O)N[C@H](C(=O)N3C[C@H](O)C[C@H]3C(=O)N[C@@H](C)c3ccc(-c4scnc4C)cc3)C(C)(C)C)cc2)cc1 [XZ9002, N^1—((S)-1-((2S,4R)-4-hydroxy-2-(((S)-1-(4-(4-methylthiazol-5-yl)phenyl)ethyl)carbamoyl)pyrrolidin-1-yl)-3,3-dimethyl-1-oxobutan-2-yl)-N^5-(4′-(2-propylhydrazine-1-carbonyl)-[1,1′-biphenyl]-4-yl)octanediamide]
- suppression of colony formation [1]: more potent to suppress colony formation
